Test results as given in patent US7482345B2, “P38 kinase inhibiting agents” (priority 2005, dated 2009).
pIC50: −log10 of the molar value.

target: T1, Murine p38 (Mus musculus, UniProt P47811); experiment: p38 kinase assay; type: biochemical; settings: illustrative Examples; table does not say which of 'the above assays'
T1 construct: made in house; host or cells: Drosophila S2 cells (p38); E. coli (GST-ATF2)
Method: Murine p38 containing the FLAG epitope tag was expressed in Drosophila S2 cells under transcriptional control of a copper-inducible metallothionein promoter. Expression of recombinant p38 was induced by treating transfected cells with 1 mM CuSO4 for 4 hours. To generate active recombinant murine p38, CuSO4-treated S2 cells were stimulated 10 minutes prior to harvest with 400 mM NaCl, 2 mM Na3VO4, and 100 μg/L okadaic acid. Cell pellets were washed with phosphate-buffered saline, 2 mM Na3VO4, and lysed in 20 mM Tris HCl, pH 7.5, 120 mM NaCl, 1% Triton X-100, 2 mM EDTA, 20 mM NaF, 4 mM Na3VO4, 2 mM Prefabloc SC (Boehringer Mannheim). Cell lysates were centrifuged for 10 min at 13,000×g, and activated, recombinant murine p38 was immunoaffinity purified from the lysate by column chromatography through anti-FLAG M2 resin (Kodak) that had been equilibrated with lysis buffer. After loading the extract the resin was washed with 10 column volumes of lysis buffer, 10 column volumes buffer A (10 mM Tris HCl, pH 7.5, 500 mM NaCl, 20% glycerol) and 10 column volumes of buffer B (10 mM Tris HCl pH 7.5, 150 mM NaCl, 20% glycerol). The fusion protein was eluted in buffer B containing 100 μg/mL FLAG peptide (Kodak).
The N-terminal 115 amino acids of ATF-2 was expressed in E. coli as a fusion protein with glutathione-S-transferase. The fusion protein was purified over glutathione agarose according to standard procedures (Pharmacia).
p38 kinase assays were performed in a reaction volume of 100 μL in a 96-well plate, at 30° for […] under the following conditions: 25 mM Hepes, pH 7.4, 10 mMmgCl2, 20 mM β-glycerolphosphate, 2 mM DTT, 5 μM ATP, 10 μCi [γ-33P]-ATP and ˜2 μM GST-ATF2. Serial dilutions of compounds were added to each reaction in 2 μL DMSO. 2 μL of DMSO was added to the last row of each reaction plate as the no inhibitor control for each inhibitor titration. The reaction was terminated with an equal volume of a stop solution containing 100 mM EDTA and 15 mM sodium pyrophosphate. PVDF filter plates (MAIPNOB50, Millipore) were pre-wet with methanol and washed with the stop solution. 50 μL aliquots from a single reaction were applied to the filter under vacuum, and the filter was washed twice with 75 mM phosphoric acid. The filter plates were counted in a scintillation counter (Top Count, Packard) and the percent inhibition at each compound concentration is determined.

T1 sequence (P47811 whole entry): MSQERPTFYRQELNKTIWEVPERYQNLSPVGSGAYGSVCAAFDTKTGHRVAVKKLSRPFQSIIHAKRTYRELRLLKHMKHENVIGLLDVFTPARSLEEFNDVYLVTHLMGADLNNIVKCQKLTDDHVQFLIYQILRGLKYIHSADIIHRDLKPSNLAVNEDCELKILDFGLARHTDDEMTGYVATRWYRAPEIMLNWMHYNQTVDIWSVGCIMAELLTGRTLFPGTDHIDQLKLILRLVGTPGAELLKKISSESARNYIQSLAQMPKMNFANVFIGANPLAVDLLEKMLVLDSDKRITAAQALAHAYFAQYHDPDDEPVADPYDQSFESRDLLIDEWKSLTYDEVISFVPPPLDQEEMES

pIC50 | SMILES
7.66 | COc1ccc(C(=O)N2CCCC2)cc1-c1c(=O)ccn2nc(Oc3ccc(F)cc3F)ccc12 [Example 4, 2-(2,4-difluorophenoxy)-5-[2-methoxy-5-(pyrrolidin-1-ylcarbonyl)phenyl]-6H-pyrido[1,2-b]pyridazin-6-one]
7.23 | CCc1ccc(C(=O)N2CCCC2)cc1-c1c(=O)ccn2nc(Oc3ccc(F)cc3F)ccc12 [Example 14, 2-(2,4-difluorophenoxy)-5-[2-ethyl-5-(pyrrolidin-1-ylcarbonyl)phenyl]-6H-pyrido[1,2-b]pyridazin-6-one]
6.15 | O=c1ccn2nc(NCc3ccc(F)cc3F)ccc2c1-c1c(F)cccc1F [Example 49]
6.49 | O=c1ccn2cc(Sc3ccc(F)cc3F)ccc2c1-c1c(F)cccc1F [Example 52, 1-(2,6-difluorophenyl)-7-[(2,4-difluorophenyl)thio]-2H-quinolizin-2-one]
7.03 | O=c1ccn2cc(Cc3ccc(F)cc3F)ccc2c1-c1c(F)cccc1F [Example 53, 7-(2,4-difluorobenzyl)-1-(2,6-difluorophenyl)-2H-quinolizin-2-one]
